Broadly, the pKi is the negative decadic logarithm of the Ki, by convention in mol/L. A high value points to a low Ki. One may read the pIC50 as the negative decadic logarithm of the IC50, by convention in mol/L. Low values mean a high IC50, high ones a low IC50.

Experiment [1] addresses T1, Progesterone receptor (Homo sapiens, UniProt P06401).
T1 sequence (P06401 whole entry): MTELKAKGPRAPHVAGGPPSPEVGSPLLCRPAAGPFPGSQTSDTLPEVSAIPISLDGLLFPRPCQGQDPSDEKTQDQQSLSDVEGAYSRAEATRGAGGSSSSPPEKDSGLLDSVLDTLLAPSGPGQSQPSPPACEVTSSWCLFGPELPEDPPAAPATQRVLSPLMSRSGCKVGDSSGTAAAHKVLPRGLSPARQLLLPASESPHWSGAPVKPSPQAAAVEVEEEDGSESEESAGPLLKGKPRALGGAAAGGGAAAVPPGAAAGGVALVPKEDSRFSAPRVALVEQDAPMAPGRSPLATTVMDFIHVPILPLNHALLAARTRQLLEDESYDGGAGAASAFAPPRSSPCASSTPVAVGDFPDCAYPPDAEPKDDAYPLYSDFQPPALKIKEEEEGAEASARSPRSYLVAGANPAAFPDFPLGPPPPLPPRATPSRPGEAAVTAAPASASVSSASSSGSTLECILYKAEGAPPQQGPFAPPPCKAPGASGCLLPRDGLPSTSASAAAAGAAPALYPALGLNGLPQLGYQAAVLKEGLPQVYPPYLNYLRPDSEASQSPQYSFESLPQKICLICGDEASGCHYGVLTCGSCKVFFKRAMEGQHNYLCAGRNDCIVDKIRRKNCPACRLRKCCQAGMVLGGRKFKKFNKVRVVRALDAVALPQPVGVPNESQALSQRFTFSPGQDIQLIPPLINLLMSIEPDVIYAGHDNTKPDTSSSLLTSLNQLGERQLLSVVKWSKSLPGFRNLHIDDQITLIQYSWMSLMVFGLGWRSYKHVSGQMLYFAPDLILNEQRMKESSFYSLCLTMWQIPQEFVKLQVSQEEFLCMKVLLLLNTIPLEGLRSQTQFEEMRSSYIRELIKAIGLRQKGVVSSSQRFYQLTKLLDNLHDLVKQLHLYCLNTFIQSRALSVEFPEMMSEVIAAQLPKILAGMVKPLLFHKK
Nature of the experiment: Binding affinity at PR by fluorescence binding assay.

For experiment [2], the target named is T1, Progesterone receptor. Nature of the experiment: Antagonist activity against PR beta-mediated transactivation of MMTV luciferase reporter gene in BacMam transduced progesterone-stimulated CV1 cells. It counts as functional, cell-based, CV-1.

pIC50, pKi: −log10 of the molar value.

On Progesterone receptor [1], `N#Cc1ccc(C2=NN(S(=O)(=O)c3ccc(Br)s3)CCCC2)cc1` gave a pKi of 7.20. As to `O=S(=O)(c1ccc(Cl)cc1)N1CCCCC(c2cccc(F)c2)=N1`, the negative-log Ki (pKi) on Progesterone receptor [1] was 6.10. For the same compound, the pIC50 against Progesterone receptor [2] was 6.30. In the case of `Cc1c(Cl)cccc1S(=O)(=O)N1CCCCC(c2cccc(Cl)c2)=N1`, the negative-log Ki (pKi) at Progesterone receptor [1] is 6.50. This compound gave a pIC50 at Progesterone receptor [2] of 5.70. Regarding `N#Cc1ccc(C2=NN(S(=O)(=O)c3ccccc3F)CCCC2)cc1`, the pKi at Progesterone receptor [1] is 6.00. Moreover, the negative logarithm of the IC50 (pIC50) on Progesterone receptor [2] is 6.40. As for `O=[N+]([O-])c1ccc(C2=NN(S(=O)(=O)c3ccc(OC(F)(F)F)cc3)CCCC2)cc1`, the pKi on Progesterone receptor [1] was 7.30. At Progesterone receptor [2], this compound showed a pIC50 of 6.80. Compound `O=S(=O)(c1cccc(Cl)c1)N1CCCCC(c2ccc(Cl)cc2)=N1` showed a pKi on Progesterone receptor [1] of 6.20. The compound further gave a negative-log IC50 (pIC50) against Progesterone receptor [2] of 5.90. As for `O=S(=O)(c1ccc(Br)s1)N1CCCCC(c2cccc(Br)c2)=N1`, at Progesterone receptor [1], the pKi is 7.20. This compound showed a pIC50 against Progesterone receptor [2] of 6.60.

At Progesterone receptor [1], `O=S(=O)(c1ccc(Cl)cc1Cl)N1CCCCC(c2ccc(Cl)c(Cl)c2)=N1` gave a pKi of 7.30. This compound also had a pIC50 against Progesterone receptor [2] of 6.70.

Take `O=S(=O)(c1ccc(Cl)s1)N1CCCCC(c2ccc(Cl)c(Cl)c2)=N1`: on Progesterone receptor [1], the pKi was 7.40. Consider `O=S(=O)(c1ccc(Br)s1)N1CCCCC(c2ccc(Cl)c(Cl)c2)=N1`, for which the pKi on Progesterone receptor [1] is 7.60. This compound had a pIC50 on Progesterone receptor [2] of 6.50. On Progesterone receptor [1], `O=S(=O)(c1ccc(Cl)s1)N1CCCCC(c2ccccc2Cl)=N1` had a pKi of 6.70. The pIC50 at Progesterone receptor [2] is 6.20.

Values taken from ChEMBL document CHEMBL1137424, “Array synthesis of progesterone receptor antagonists: 3-aryl-1,2-diazepines” (Bioorg Med Chem Lett, 2006).
